Oligonucleotides are written 5' to 3', each unit as a sugar letter and its base; * is a phosphorothioate linkage, no mark a phosphodiester; rarer units and linkages stand in square brackets, end groups in braces. Plain capitals give the bases only. r = 2'-OH (RNA)
System: Flt3L-DC
Assay: Flt3L-DC activation assay (cytokines in supernatant by sandwich ELISA)
Assay type: cell-based, mouse
Settings: for ability to stimulate TLR7: summary statement on oligonucleotides of Table 1; for levels of IFNα compared with polyUs-21: at higher concentrations; for IFNα production: phosphodiester RNA of undefined length, previous experiments; for fold less potent in inducing IFNα by Flt3L-DC than the 21-mer (polyUo-21): phosphodiester polyU RNA, shift in the dose response; for IFNα induction by Flt3L-DC compared with polyUs-21 (reference TLR7 ligand): comparison in words
[1] = oligonucleotide/PEI complexes, C57BL/6 Flt3L-DC, overnight culture, result in words

Procedure: Flt3L-DC were generated from bone marrow cell suspensions in RPMI 1640 medium containing 10% fetal calf serum, 2 mM glutamine, 100 units/ml penicillin, 100 μg/ml streptomycin, 50 μM 2-mercaptoethanol and 50 ng/ml murine Flt3L (R&D systems) and were used at day 10 or 11 of cultures.
For stimulation with oligonucleotides, 2×10^5 Flt3L-DC were seeded in triplicate in 96-well-plates. Oligonucleotides were added and cells were cultured overnight in a final volume of 200 μl. Controls contained medium alone, 0.5 μg/ml CpG 1668, 100 mM loxoribine or 1 μM R848.
For stimulation with oligonucleotides other than CpG 1668, different doses of each test oligonucleotides were diluted in 150 mM NaCl solution and mixed with an equal volume of 150 mM NaCl solution+/−polytheylenimine (PEI; 3 μl/ml PEI were used irrespective of the RNA dose). After 15 min incubation at room temperature, oligonucleotide/PEI complexes were added to cells. Supernatants were collected after 18-20 hr of culture and levels of IFNα, IL-6 and IL-12 p40 were determined by sandwich ELISA.

SSD13: phosphorothioate RNA 21-mer UUUCCCUUUCCCUUUCCCUUU, 4x triple U, SEQ ID NO 15 (rU*rU*rU*rC*rC*rC*rU*rU*rU*rC*rC*rC*rU*rU*rU*rC*rC*rC*rU*rU*rU)
ability to stimulate TLR7: capable of stimulating TLR7

SSD28: phosphorothioate RNA 21-mer CCCCUUCUUCUUCUUCUUCCC, 5x double U, one C apart, SEQ ID NO 24 (rC*rC*rC*rC*rU*rU*rC*rU*rU*rC*rU*rU*rC*rU*rU*rC*rU*rU*rC*rC*rC)
levels of IFNα compared with polyUs-21 (PEI complexes): comparable to the polyUs-21 oligonucleotide | IFNα induction by Flt3L-DC [1]: very potent in inducing IFNα | ability to stimulate TLR7: capable of stimulating TLR7

polyA [reference compound]
IFNα production: neither polyA nor polyC phosphodiester RNA of undefined length triggered IFNα production

polyC [reference compound]
IFNα production: neither polyA nor polyC phosphodiester RNA of undefined length triggered IFNα production

polyUo-10: polyU RNA 10-mer, phosphodiester bonds, SEQ ID NO 4 (UUUUUUUUUU; unmodified RNA)
fold less potent in inducing IFNα by Flt3L-DC than the 21-mer (polyUo-21) (PEI complexes): approximately 20 × | ability to stimulate TLR7: capable of stimulating TLR7

polydUo-21: polyU DNA 21-mer (dU), phosphodiester bonds, SEQ ID NO 8 (UUUUUUUUUUUUUUUUUUUUU; listed as RNA, chemistry not fully specified)
potency in inducing IFNα compared with polyUo-21 (at higher doses, PEI complexes): even more potent | potency in stimulating an IFNα response compared with polyUo-21 (at lower doses, PEI complexes): less potent | IFNα induction by Flt3L-DC [1]: produced IFNα | ability to stimulate TLR7: capable of stimulating TLR7

SSD23: phosphorothioate RNA 21-mer CCCUUUCCCUUUCCCUUUCCC, 3x triple U, three C apart, SEQ ID NO 20 (rC*rC*rC*rU*rU*rU*rC*rC*rC*rU*rU*rU*rC*rC*rC*rU*rU*rU*rC*rC*rC)
ability to stimulate TLR7: capable of stimulating TLR7

SSD8: phosphorothioate RNA 21-mer CCUUUCCUUUCUUUCCUUUCC, 4x triple U, SEQ ID NO 12 (rC*rC*rU*rU*rU*rC*rC*rU*rU*rU*rC*rU*rU*rU*rC*rC*rU*rU*rU*rC*rC)
IFNα induction compared among SSD8, SSD9 and SSD10 (four, three or two uridine triplets) (PEI complexes): Differences between oligonucleotides SSD8 and SSD9 were only marginal | potency in inducing IFNα, no uridine at the ends (SSD8, SSD14) compared with uridine at the ends (SSD13, SSD15) (PEI complexes): slightly more potent in inducing IFNα | shift of the dose response, no uridine at the ends (SSD8, SSD14) compared with uridine at the ends (SSD13, SSD15) (PEI complexes): nearly half a logarithmic scale | IFNα induction by Flt3L-DC compared with polyUs-21 (reference TLR7 ligand) (PEI complexes): lower levels of IFNα than the 21-mer oligonucleotide consisting entirely of uridine nucleotides | ability to stimulate TLR7: capable of stimulating TLR7

SSD21: phosphorothioate RNA 21-mer CCCCCUUUCUUUCUUUCCCCC, 3x triple U, one C apart, SEQ ID NO 18 (rC*rC*rC*rC*rC*rU*rU*rU*rC*rU*rU*rU*rC*rU*rU*rU*rC*rC*rC*rC*rC)
IFNα levels compared within the group SSD21-SSD25 (three uridine triplets, one to five cytosines apart) (PEI complexes): induced the highest levels of IFNα in this group of oligonucleotides | IFNα induction by Flt3L-DC compared with polyUs-21 (reference TLR7 ligand) (PEI complexes): less efficient in IFNα induction than polyUs-21 | ability to stimulate TLR7: capable of stimulating TLR7

polyUo-15: polyU RNA 15-mer, phosphodiester bonds, SEQ ID NO 3 (UUUUUUUUUUUUUUU; unmodified RNA)
fold less potent in inducing IFNα by Flt3L-DC than the 21-mer (polyUo-21) (PEI complexes): approximately 20 × | ability to stimulate TLR7: capable of stimulating TLR7

SSD24: phosphorothioate RNA 21-mer CCUUUCCCCUUUCCCCUUUCC, 3x triple U, four C apart, SEQ ID NO 21 (rC*rC*rU*rU*rU*rC*rC*rC*rC*rU*rU*rU*rC*rC*rC*rC*rU*rU*rU*rC*rC)
ability to stimulate TLR7: capable of stimulating TLR7

SSD10: phosphorothioate RNA 21-mer CCCCCCCUUUCUUUCCCCCCC, 2x triple U, SEQ ID NO 14 (rC*rC*rC*rC*rC*rC*rC*rU*rU*rU*rC*rU*rU*rU*rC*rC*rC*rC*rC*rC*rC)
IFNα induction compared among SSD8, SSD9 and SSD10 (four, three or two uridine triplets) (PEI complexes): slightly reduced | IFNα induction by Flt3L-DC compared with polyUs-21 (reference TLR7 ligand) (PEI complexes): lower levels of IFNα than the 21-mer oligonucleotide consisting entirely of uridine nucleotides | ability to stimulate TLR7: capable of stimulating TLR7

polyUs-15: polyU RNA 15-mer, phosphorothioate bonds, SEQ ID NO 6 (rU*rU*rU*rU*rU*rU*rU*rU*rU*rU*rU*rU*rU*rU*rU)
IFNα induction by Flt3L-DC compared with polyUs-21 (reference TLR7 ligand) (PEI complexes): indistinguishable from the response obtained with the 21-mer | ability to stimulate TLR7: capable of stimulating TLR7

SSD25: phosphorothioate RNA 21-mer CUUUCCCCCUUUCCCCCUUUC, 3x triple U, five C apart, SEQ ID NO 22 (rC*rU*rU*rU*rC*rC*rC*rC*rC*rU*rU*rU*rC*rC*rC*rC*rC*rU*rU*rU*rC)
IFNα induction by Flt3L-DC [1]: hardly any measurable levels of IFNα were induced

polyUo-21: polyU RNA 21-mer, phosphodiester bonds, SEQ ID NO 2 (UUUUUUUUUUUUUUUUUUUUU; unmodified RNA)
IFNα induction by Flt3L-DC compared with polyUs-21 (reference TLR7 ligand) (PEI complexes): induced similar IFNα | IFNα induction by Flt3L-DC (free oligonucleotide given to culture without PEI): failed to induce IFNα | IFNα induction by Flt3L-DC [1]: induced IFNα by Flt3L-DC in a dose dependent manner | ability to stimulate TLR7: capable of stimulating TLR7

C=CCn1c(=O)n([C@@H]2O[C@H](CO)[C@@H](O)[C@H]2O)c2nc(N)[nH]c(=O)c21 [loxoribine, reference compound]
IL-6 induction by Flt3L-DC (ligands at concentrations of maximum cytokine induction, compared with polyUs-21/PEI): better inducers of IL-6 than polyUs-21

SSD29: phosphorothioate RNA 21-mer CCCCCCUUUUUUUUUUCCCCC, 10x U in a string, SEQ ID NO 25 (rC*rC*rC*rC*rC*rC*rU*rU*rU*rU*rU*rU*rU*rU*rU*rU*rC*rC*rC*rC*rC)
levels of IFNα compared with polyUs-21 (PEI complexes): comparable to the polyUs-21 oligonucleotide | IFNα induction by Flt3L-DC [1]: very potent in inducing IFNα | ability to stimulate TLR7: capable of stimulating TLR7

polydUs-21: polyU DNA 21-mer (dU), phosphorothioate bonds, SEQ ID NO 9 (UUUUUUUUUUUUUUUUUUUUU; DNA, all phosphorothioate, T or U not given here)
ability to stimulate TLR7: capable of stimulating TLR7

SSD9: phosphorothioate RNA 21-mer CCCCCCCUUUCUUUCCUUUCC, 3x triple U, SEQ ID NO 13 (rC*rC*rC*rC*rC*rC*rC*rU*rU*rU*rC*rU*rU*rU*rC*rC*rU*rU*rU*rC*rC)
IFNα induction compared among SSD8, SSD9 and SSD10 (four, three or two uridine triplets) (PEI complexes): Differences between oligonucleotides SSD8 and SSD9 were only marginal | IFNα induction by Flt3L-DC compared with polyUs-21 (reference TLR7 ligand) (PEI complexes): lower levels of IFNα than the 21-mer oligonucleotide consisting entirely of uridine nucleotides | ability to stimulate TLR7: capable of stimulating TLR7

SSD15: phosphorothioate RNA 21-mer UUCCCUUCCCUUCCUUCCCUU, 5x double U with U at the end, SEQ ID NO 17 (rU*rU*rC*rC*rC*rU*rU*rC*rC*rC*rU*rU*rC*rC*rU*rU*rC*rC*rC*rU*rU)
ability to stimulate TLR7: capable of stimulating TLR7

SSD22: phosphorothioate RNA 21-mer CCCCUUUCCUUUCCUUUCCCC, 3x triple U, two C apart, SEQ ID NO 19 (rC*rC*rC*rC*rU*rU*rU*rC*rC*rU*rU*rU*rC*rC*rU*rU*rU*rC*rC*rC*rC)
ability to stimulate TLR7: capable of stimulating TLR7

SSD14: phosphorothioate RNA 21-mer CCUUCCUUCCUUCCUUCCUUC, 5x double U, no U at the end, SEQ ID NO 16 (rC*rC*rU*rU*rC*rC*rU*rU*rC*rC*rU*rU*rC*rC*rU*rU*rC*rC*rU*rU*rC)
potency in inducing IFNα, no uridine at the ends (SSD8, SSD14) compared with uridine at the ends (SSD13, SSD15) (PEI complexes): slightly more potent in inducing IFNα | shift of the dose response, no uridine at the ends (SSD8, SSD14) compared with uridine at the ends (SSD13, SSD15) (PEI complexes): nearly half a logarithmic scale | ability to stimulate TLR7: capable of stimulating TLR7

polyTs-21: polyT RNA 21-mer, phosphorothioate bonds, SEQ ID NO 28 (TTTTTTTTTTTTTTTTTTTTT; RNA, all phosphorothioate, T or U not given here; further chemistry not fully specified)
IFNα induction by Flt3L-DC [1]: unable to induce measurable levels of IFNα at any of the tested concentrations

SSD27: phosphorothioate RNA 21-mer CUCUCUCUCUCUCUCUCUCUC, 10x single U, one C apart, SEQ ID NO 23 (rC*rU*rC*rU*rC*rU*rC*rU*rC*rU*rC*rU*rC*rU*rC*rU*rC*rU*rC*rU*rC)
IFNα induction by Flt3L-DC [1]: comparably poor in inducing IFNα

Source: patent US20090169472A1, “METHODS AND COMPOSITIONS FOR TREATING IMMUNE DISORDERS” (CANCER RESEARCH TECHNOLOGY LTD., priority 2005, published 2009)
